US20250230193A1, “CYCLIC COMPOUND HAVING SELECTIVE KRAS INHIBITORY EFFECT ON HRAS AND NRAS” (CHUGAI SEIYAKU KABUSHIKI KAISHA, priority 2022, published 2025)

Columns and labels:
[1] = molecular target: GDP-bound NRAS wild-type protein (Homo sapiens, UniProt P01111); assay: Binding to NRAS by surface plasmon resonance (SPR), Single Cycle Kinetics; details: KD ratio, GDP-bound NRAS wild-type vs GDP-bound KRAS wild-type, SPR
[2] = molecular target: GDP-bound HRAS wild-type protein (Homo sapiens, UniProt P01112); assay: Binding to HRAS by surface plasmon resonance (SPR), Single Cycle Kinetics; details: KD ratio, GDP-bound HRAS wild-type vs GDP-bound KRAS wild-type, SPR
GDP-bound HRAS wild-type protein, sequence (P01112 whole entry): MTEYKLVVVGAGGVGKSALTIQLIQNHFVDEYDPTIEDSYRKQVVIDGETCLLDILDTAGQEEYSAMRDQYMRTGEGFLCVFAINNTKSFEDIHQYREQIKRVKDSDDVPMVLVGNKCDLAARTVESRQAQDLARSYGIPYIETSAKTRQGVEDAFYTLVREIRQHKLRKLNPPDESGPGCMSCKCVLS

GDP-bound NRAS wild-type protein, sequence (P01111 whole entry): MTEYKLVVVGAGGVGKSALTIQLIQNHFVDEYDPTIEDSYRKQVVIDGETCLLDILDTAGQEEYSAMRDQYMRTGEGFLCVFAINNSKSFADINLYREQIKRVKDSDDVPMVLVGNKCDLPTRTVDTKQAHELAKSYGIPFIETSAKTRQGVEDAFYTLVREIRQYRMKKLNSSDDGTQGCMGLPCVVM

SMILES | NRAS/KRAS (ratio of KD value with respect to NRAS to KD value with respect to KRAS) [1] | HRAS/KRAS (ratio of KD value with respect to HRAS to KD value with respect to KRAS) [2]
CCO[C@@H]1C[C@H]2C(=O)NC3(CCC3)C(=O)N(C)[C@@H](C3CCCC3)C(=O)N(C)[C@H](C(=O)N(C)C)CC(=O)N(C)[C@@H](Cc3cccc(C)c3)C(=O)N[C@@H]([C@@H](C)CC)C(=O)N(C)CC(=O)N(C)[C@H]3CCCCCN(C3=O)[C@@H](Cc3ccc(C(F)(F)F)cc3)C(=O)N(C)CC(=O)N[C@@H](CCc3cc(F)c(C(F)(F)F)c(F)c3)C(=O)N2C1 [PP0942] | B (a compound having 3 or more and less than 10 is denoted as B) | B (a compound having 3 or more and less than 10 is denoted as B)
CCO[C@@H]1C[C@H]2C(=O)NC3(CCC3)C(=O)N(C)[C@@H](C3CCCC3)C(=O)N(C)[C@H](C(=O)N(C)C)CC(=O)N(C)[C@@H](Cc3ccc(C)cc3)C(=O)N[C@@H]([C@@H](C)CC)C(=O)N(C)CC(=O)N(C)[C@H]3CCCCCN(C3=O)[C@@H](Cc3ccc(C(F)(F)F)cc3)C(=O)N(C)CC(=O)N[C@@H](CCc3cc(F)c(C(F)(F)F)c(F)c3)C(=O)N2C1 [PP0943] | B (a compound having 3 or more and less than 10 is denoted as B) | B (a compound having 3 or more and less than 10 is denoted as B)
CCO[C@@H]1C[C@H]2C(=O)NC3(CCC3)C(=O)N(C)[C@@H](C3CCCC3)C(=O)N(CC)[C@H](C(=O)N3CCOCC3)CC(=O)N(C)[C@@H](CC)C(=O)N[C@@H]([C@@H](C)CC)C(=O)N(C)CC(=O)N(C)[C@H]3CCCCCN(C3=O)[C@@H](Cc3ccc(C(F)(F)F)cc3)C(=O)N(C)CC(=O)N[C@@H](CCc3cc(F)c(C(F)(F)F)c(F)c3)C(=O)N2C1 [PP0944] | A (a compound having 10 or more and less than 20 is denoted as A) | A (a compound having 10 or more and less than 20 is denoted as A)
CCO[C@@H]1C[C@H]2C(=O)NC3(CCC3)C(=O)N(C)[C@@H](C3CCCC3)C(=O)N(CC)[C@H](C(=O)N3CCOCC3)CC(=O)N(C)[C@@H](CO)C(=O)N[C@@H]([C@@H](C)CC)C(=O)N(C)CC(=O)N(C)[C@H]3CCCCCN(C3=O)[C@@H](Cc3ccc(C(F)(F)F)cc3)C(=O)N(C)CC(=O)N[C@@H](CCc3cc(F)c(C(F)(F)F)c(F)c3)C(=O)N2C1 [PP0945] | B (a compound having 3 or more and less than 10 is denoted as B) | A (a compound having 10 or more and less than 20 is denoted as A)
CCO[C@@H]1C[C@H]2C(=O)NC3(CCC3)C(=O)N(C)[C@@H](C3CCCC3)C(=O)N(CC)[C@H](C(=O)N3CCOCC3)CC(=O)N(C)[C@@H](COC)C(=O)N[C@@H]([C@@H](C)CC)C(=O)N(C)CC(=O)N(C)[C@H]3CCCCCN(C3=O)[C@@H](Cc3ccc(C(F)(F)F)cc3)C(=O)N(C)CC(=O)N[C@@H](CCc3cc(F)c(C(F)(F)F)c(F)c3)C(=O)N2C1 [PP0946] | A (a compound having 10 or more and less than 20 is denoted as A) | B (a compound having 3 or more and less than 10 is denoted as B)
CCO[C@@H]1C[C@H]2C(=O)NC3(CCC3)C(=O)N(C)[C@@H](C3CCCC3)C(=O)N(CC)[C@H](C(=O)N3CCOCC3)CC(=O)N(C)[C@@H](CCOC)C(=O)N[C@@H]([C@@H](C)CC)C(=O)N(C)CC(=O)N(C)[C@H]3CCCCCN(C3=O)[C@@H](Cc3ccc(C(F)(F)F)cc3)C(=O)N(C)CC(=O)N[C@@H](CCc3cc(F)c(C(F)(F)F)c(F)c3)C(=O)N2C1 [PP0947] | A (a compound having 10 or more and less than 20 is denoted as A) | A (a compound having 10 or more and less than 20 is denoted as A)
CCO[C@@H]1C[C@H]2C(=O)NC3(CCC3)C(=O)N(C)[C@@H](C3CCCC3)C(=O)N(CC)[C@H](C(=O)N3CCOCC3)CC(=O)N(C)[C@@H](CCC(F)F)C(=O)N[C@@H]([C@@H](C)CC)C(=O)N(C)CC(=O)N(C)[C@H]3CCCCCN(C3=O)[C@@H](Cc3ccc(C(F)(F)F)cc3)C(=O)N(C)CC(=O)N[C@@H](CCc3cc(F)c(C(F)(F)F)c(F)c3)C(=O)N2C1 [PP0948] | A (a compound having 10 or more and less than 20 is denoted as A) | A (a compound having 10 or more and less than 20 is denoted as A)
CCO[C@@H]1C[C@H]2C(=O)NC3(CCC3)C(=O)N(C)[C@@H](C3CCCC3)C(=O)N(CC)[C@H](C(=O)N3CCOCC3)CC(=O)N(C)[C@@H](CCC(Cl)Cl)C(=O)N[C@@H]([C@@H](C)CC)C(=O)N(C)CC(=O)N(C)[C@H]3CCCCCN(C3=O)[C@@H](Cc3ccc(C(F)(F)F)cc3)C(=O)N(C)CC(=O)N[C@@H](CCc3cc(F)c(C(F)(F)F)c(F)c3)C(=O)N2C1 [PP0949] | A (a compound having 10 or more and less than 20 is denoted as A) | A (a compound having 10 or more and less than 20 is denoted as A)
CCO[C@@H]1C[C@H]2C(=O)NC3(CCC3)C(=O)N(C)[C@@H](C3CCCC3)C(=O)N(CC)[C@H](C(=O)N3CCOCC3)CC(=O)N(C)[C@@H](Cc3ccccc3)C(=O)N[C@@H]([C@@H](C)CC)C(=O)N(C)CC(=O)N(C)[C@H]3CCCCCN(C3=O)[C@@H](Cc3ccc(C(F)(F)F)cc3)C(=O)N(C)CC(=O)N[C@@H](CCc3cc(F)c(C(F)(F)F)c(F)c3)C(=O)N2C1 [PP0950] | A (a compound having 10 or more and less than 20 is denoted as A) | B (a compound having 3 or more and less than 10 is denoted as B)
CCO[C@@H]1C[C@H]2C(=O)NC3(CCC3)C(=O)N(C)[C@@H](C3CCCC3)C(=O)N(CC)[C@H](C(=O)N3CCOCC3)CC(=O)N(C)[C@@H](CCc3ccccc3)C(=O)N[C@@H]([C@@H](C)CC)C(=O)N(C)CC(=O)N(C)[C@H]3CCCCCN(C3=O)[C@@H](Cc3ccc(C(F)(F)F)cc3)C(=O)N(C)CC(=O)N[C@@H](CCc3cc(F)c(C(F)(F)F)c(F)c3)C(=O)N2C1 [PP0953] | A (a compound having 10 or more and less than 20 is denoted as A) | A (a compound having 10 or more and less than 20 is denoted as A)
CC[C@H](C)[C@@H]1NC(=O)[C@H](CC(C)C)N(C)C(=O)C[C@@H](C(=O)N2CCOCC2)N(CC)C(=O)[C@H](C2CCCC2)N(C)C(=O)C2(CCC2)NC(=O)[C@@H]2CC(F)(F)CN2C(=O)[C@H](CCc2cc(F)c(C(F)(F)F)c(F)c2)NC(=O)CN(C)C(=O)[C@H](Cc2ccc(C(F)(F)F)cc2)N2CCCCC[C@@H](C2=O)N(C)C(=O)CN(C)C1=O [PP0954] | A (a compound having 10 or more and less than 20 is denoted as A) | A (a compound having 10 or more and less than 20 is denoted as A)
CC[C@H](C)[C@@H]1NC(=O)[C@H](CC(C)C)N(C)C(=O)C[C@@H](C(=O)N2CCOCC2)N(CC)C(=O)[C@H](C2CCCC2)N(C)C(=O)C2(CCC2)NC(=O)[C@@H]2[C@H](O)CCN2C(=O)[C@H](CCc2cc(F)c(C(F)(F)F)c(F)c2)NC(=O)CN(C)C(=O)[C@H](Cc2ccc(C(F)(F)F)cc2)N2CCCCC[C@@H](C2=O)N(C)C(=O)CN(C)C1=O [PP0955] | A (a compound having 10 or more and less than 20 is denoted as A) | A (a compound having 10 or more and less than 20 is denoted as A)
CCO[C@@H]1C[C@H]2C(=O)NC3(CC=CC3)C(=O)N(C)[C@@H](C3CCCC3)C(=O)N(CC)[C@H](C(=O)N3CCOCC3)CC(=O)N(C)[C@@H](CC(C)C)C(=O)N[C@@H]([C@@H](C)CC)C(=O)N(C)CC(=O)N(C)[C@H]3CCCCCN(C3=O)[C@@H](Cc3ccc(C(F)(F)F)cc3)C(=O)N(C)CC(=O)N[C@@H](CCc3cc(F)c(C(F)(F)F)c(F)c3)C(=O)N2C1 [PP0956] | A (a compound having 10 or more and less than 20 is denoted as A) | A (a compound having 10 or more and less than 20 is denoted as A)
CCO[C@@H]1C[C@H]2C(=O)NC(C)(C)C(=O)N(C)[C@@H](C3CCCC3)C(=O)N(CC)[C@H](C(=O)N3CCOCC3)CC(=O)N(C)[C@@H](CC(C)C)C(=O)N[C@@H]([C@@H](C)CC)C(=O)N(C)CC(=O)N(C)[C@H]3CCCCCN(C3=O)[C@@H](Cc3ccc(C(F)(F)F)cc3)C(=O)N(C)CC(=O)N[C@@H](CCc3cc(F)c(C(F)(F)F)c(F)c3)C(=O)N2C1 [PP0958] | B (a compound having 3 or more and less than 10 is denoted as B) | B (a compound having 3 or more and less than 10 is denoted as B)
CC[C@H](C)[C@@H]1NC(=O)[C@H](CC)N(C)C(=O)C[C@@H](C(=O)N2CCOCC2)N(C)C(=O)[C@H](C2CCCC2)N(C)C(=O)C2(CCCC2)NC(=O)[C@@H]2CCCN2C(=O)[C@H](CCc2ccc(C(F)(F)F)c(Cl)c2)NC(=O)CN(C)C(=O)[C@H](Cc2ccc(F)cc2)N2CCCCC[C@@H](C2=O)N(C)C(=O)CN(C)C1=O [PP0959] | B (a compound having 3 or more and less than 10 is denoted as B) | B (a compound having 3 or more and less than 10 is denoted as B)
